Experimental data as given in publication PMC10835127, “Viruses traverse the human proteome through peptide interfaces that can be biomimetically leveraged for drug discovery” (Proceedings of the National Academy of Sciences of the …, 2024).
Read-outs that look alike come from different tables or passages of the source. No end group written: not given here.

Key:
HIV1 strain NL4-3 = format: cell-based; conditions: normalized mean of HIV1 replication readout
[1] = system: F. novicida (strain U112); format: cell-based
HCV replicon = format: cell-based; conditions: for HCV Norm MEAN: normalized mean of HCV replicon readout
influenza A H1N1 virus = conditions: 48 hr post-treatment, A549
EBV = conditions: for EBV Norm MEAN: normalized mean of EBV replication readout

Substance	HIV1 Norm MEAN (HIV1 strain NL4-3)	Francisella novicida Norm AUC [1]	HCV Norm MEAN (HCV replicon)	Neuraminidase activity normalized to vehicle (influenza A H1N1 virus; 200 µM peptide)	Neuraminidase activity normalized to vehicle (influenza A H1N1 virus; 0,823 µM peptide)	Neuraminidase activity normalized to vehicle (influenza A H1N1 virus; 22,2 µM peptide)	Neuraminidase activity normalized to vehicle (influenza A H1N1 virus; 2,4691 µM peptide)	Neuraminidase activity normalized to vehicle (influenza A H1N1 virus; 7,4074 µM peptide)	Neuraminidase activity normalized to vehicle (influenza A H1N1 virus; 66,6667 µM peptide)	EBV Norm MEAN (EBV)	HIV1 Norm MEAN (HIV1 strain NL4-3; peptide screen)	HCV Norm MEAN (HCV replicon; peptide screen)	EBV Norm MEAN (EBV; peptide screen)	Francisella novicida Norm AUC ([1]; normalized area under the curve)	inhibition of EBV late gene reporter signal (EBV; 48 h, 20 µM)	activity in HCV screen (in words) (HCV replicon; 20 µM peptide, Huh7, replicon luciferase)
FPESLIL [CPEP76]	0.9579	0.9207	0.1881	0,7678	0,7594	0,787	0,7722	0,7943	0,7797	1.102	–	–	–	–	–	–
HFEPPTLHELYDLDVTAP [CPEP115]	–	1.086	–	1,0337	1,141	1,1784	1,0495	1,1676	1,1762	–	1.21	0.5064	0.5144	–	–	–
LGNIKGILGKKDKDG [CPEP51]	–	1.389	–	1,0387	0,8902	0,9184	0,9673	0,9421	1,0486	–	0.5462	0.7895	0.7752	–	–	–
RDVLCLRPVGAESR [CPEP94]	–	1.032	–	0,3954	0,7797	0,8926	0,8827	0,8423	0,695	–	0.3822	0.7235	0.9161	–	–	–
LQQLL [CPEP130]	1.886	0.7754	0.1679	1,0055	0,8445	0,933	0,8513	0,8415	1,0245	1.354	–	–	–	–	–	–
YASIL [CPEP21]	2.264	0.5259	0.1905	0,9829	0,8221	0,8963	0,8753	0,7869	1,0057	1.459	–	–	–	–	–	–
CPEP98: peptide of the viral peptide library; sequence page not shown (PLPPTKAPPIPPPR)	–	1.1759	–	1,0266	0,8951	0,9384	0,9959	0,9005	0,9857	–	0.2763	0.3984	0.8005	–	–	–
GGLEPLSEKHFRETEV [CPEP112]	–	1.082	–	1,0677	1,0673	1,1545	1,0388	1,1047	1,0264	–	0.2121	0.3447	0.8103	–	–	–
RKSASMS [CPEP82]	1.975	1.194	0.267	0,8479	0,801	0,7544	0,6968	0,5924	0,9164	1.372	–	–	–	–	–	–
CPEP96: peptide of the viral peptide library; sequence page not shown (GRKKRRQRRRAHQ)	–	1.029	–	0,8043	0,9089	0,9748	0,9539	0,8942	0,9344	–	0.5669	0.3919	1.164	–	–	–
SEWQRDQFLSQVK [CPEP95]	0.5103	–	0.2824	0,9927	0,9256	0,9538	0,9776	0,9237	1,0019	0.3991	–	–	–	1.114	60%	–
QILVESPTVLESGTKE [CPEP80]	–	0.9366	–	0,8685	1,0444	1,1492	1,0137	1,0974	0,9708	–	0.6346	0.9076	0.8761	–	–	–
PVHAGPIAPGQMREP [CPEP81]	–	1.038	–	0,9395	0,9268	1,0319	1,0385	1,0221	1,026	–	0.8771	0.6759	0.3978	–	–	–
PVQLSYYD [CPEP144]	1.139	1.621	0.1325	0,7318	1,0036	0,9081	0,8026	0,9626	0,8536	1.072	–	–	–	–	–	peptide inhibiting HCV
WGCSGKLICTTTVPW [CPEP84]	–	1.224	–	0,0819	0,9093	0,9299	0,9765	0,9455	0,3888	–	0.7328	0.9118	0.6808	–	–	–
PLDLS [CPEP54]	1.112	0.4272	0.1712	1,1329	1,0199	0,844	1,1627	0,6425	1,0456	1.129	–	–	–	–	–	–
